“Also recorded” adds a separate entry of the source.
The substances below were run on microorganisms (e.g., bacteria, yeasts, fungi) (assay: Targeting peptide binding to target microorganisms (Table 3)). Settings: microorganism(s) the targeting peptide binds; binding in aqueous buffers depending on peptide solubility, preferably 1x PBS.

Substance | Target(s)
PF-237 (YVKPKVGVHE; Peptide with targeting and/or antimicrobial activity) | S. epidermidis
PF-238 (RNAVVVTEATFPKYEEEITNYLNRRFGEDWSLKLEKCSVA; Peptide with targeting and/or antimicrobial activity) | S. mutans and S. epidermidis and E. coli and P. aeruginosa and C. albicans and MRSA and S. pneumoniae and E. faecalis
PF-239 (PKHNVVTGVSVDLDYKP; Peptide with targeting and/or antimicrobial activity) | S. mutans; also recorded: E. coli
PF-240 (RITEVPPDEHSDR; Peptide with targeting and/or antimicrobial activity) | S. mutans; also recorded: E. coli
PF-242 (KLFEDPLIKSKAVENFQTTWHEQCLAKELAKNM; Peptide with targeting and/or antimicrobial activity) | S. mutans; also recorded: E. coli
PF-244 (HMRTISYLLAFAKFSLFIPPKQSLKRL; Peptide with targeting and/or antimicrobial activity) | S. epidermidis; also recorded: M. luteus; also recorded: P. aeruginosa; also recorded: A. baumannii
PF-245 (MNDVKPVVQPKQTLKAFLVQLLSVRAGVYIKQNNQLPKTKG; Peptide with targeting and/or antimicrobial activity) | S. epidermidis; also recorded: M. luteus; also recorded: P. aeruginosa; also recorded: A. baumannii
PF-246 (QPDEKAEFFDPSLDKVYRHPTFYHIPDGIEHM; Peptide with targeting and/or antimicrobial activity) | S. mutans
PF-247 (ETAASETH; Peptide with targeting and/or antimicrobial activity) | S. epidermidis
PF-248 (ILSKLWFWMINSLGVVLLVSYWLLAKWGVA; Peptide with targeting and/or antimicrobial activity) | S. mutans; also recorded: S. epidermidis; also recorded: M. luteus; also recorded: E. coli; also recorded: P. aeruginosa; also recorded: A. baumannii
PF-253 (VRDDDS; Peptide with targeting and/or antimicrobial activity) | S. epidermidis; also recorded: M. luteus
PF-254 (FIYGVGFVPHFWLWKWLFSPWIAWPLMLLGYYIWFLT; Peptide with targeting and/or antimicrobial activity) | S. epidermidis; also recorded: M. luteus; also recorded: P. aeruginosa; also recorded: A. baumannii
PF-256 (EYFKQVYVKNEKIYSFWICKDLSPKEAAKRAEDILVKLK; Peptide with targeting and/or antimicrobial activity) | S. epidermidis
PF-259 (LPFSKIGRRVSYKKKDVLKYEQSKTVLNTAQLATV; Peptide with targeting and/or antimicrobial activity) | S. epidermidis; also recorded: P. aeruginosa; also recorded: A. baumannii
PF-262 (DPHSEIDVTRYCQLHHFTCQTMQISEREFHYLIETQ; Peptide with targeting and/or antimicrobial activity) | S. mutans; also recorded: S. epidermidis; also recorded: M. luteus; also recorded: E. coli; also recorded: P. aeruginosa; also recorded: A. baumannii
PF-263 (NLKKCPC; Peptide with targeting and/or antimicrobial activity) | S. epidermidis; also recorded: M. luteus; also recorded: A. baumannii
PF-265 (MKTLFFPLFLIIFVLIIQALDQSYQKKIGISKPQKHPEFMQ; Peptide with targeting and/or antimicrobial activity) | S. epidermidis; also recorded: M. luteus; also recorded: A. baumannii
PF-266 (DQEKKNKTEESTEQ; Peptide with targeting and/or antimicrobial activity) | S. mutans
PF-267 (SDDKRTD; Peptide with targeting and/or antimicrobial activity) | M. luteus
PF-268 (EVLLSDLRPDIFSET; Peptide with targeting and/or antimicrobial activity) | S. mutans
PF-275 (LVSGVANTVKNTAHTVGNTAKHAGHVAADTTVKATKKQQVK; Peptide with targeting and/or antimicrobial activity) | S. mutans
PF-279 (SHIGFISISACLAVLLGIARLFVWTWVKFFA; Peptide with targeting and/or antimicrobial activity) | S. mutans; also recorded: S. epidermidis; also recorded: M. luteus; also recorded: E. coli; also recorded: P. aeruginosa; also recorded: A. baumannii
PF-281 (SYNTYYNKLIHGQRTPDGM; Peptide with targeting and/or antimicrobial activity) | S. mutans; also recorded: E. coli
PF-282 (QNNDTSAWCGSAHKNGNS; Peptide with targeting and/or antimicrobial activity) | S. mutans
PF-284 (MRYITYSLIPRLLSKKVIHQQ; Peptide with targeting and/or antimicrobial activity) | C. difficile
PF-285 (VPAKLLRVIDEIPE; Peptide with targeting and/or antimicrobial activity) | S. mutans
PF-288 (IYQLLNIEYSEDD; Peptide with targeting and/or antimicrobial activity) | S. mutans; also recorded: E. coli

Substance | Target(s)
PF-291 (DVDGAIESEL; Peptide with targeting and/or antimicrobial activity) | S. mutans; also recorded: E. coli
PF-295 (NIQVYESECGNYIFKKSDESFLIDIFDKNGTH; Peptide with targeting and/or antimicrobial activity) | C. difficile
PF-299 (LATKLKYEKEHKKM; Peptide with targeting and/or antimicrobial activity) | B. subtilis
PF-300 (VKDVLLELFNKIIGA; Peptide with targeting and/or antimicrobial activity) | B. subtilis; also recorded: C. difficile
PF-304 (LVKDTSDIKNDLNNIEIVTSKNSNDIAKLKSVK; Peptide with targeting and/or antimicrobial activity) | S. mutans
PF-308 (QQYLILDRM; Peptide with targeting and/or antimicrobial activity) | C. difficile
PF-309 (GIPGMTAAPAEENEQEENADEE; Peptide with targeting and/or antimicrobial activity) | S. mutans; also recorded: E. coli
PF-311 (IDAVTKKKTTCMIRAPTKIPIAHTDN; Peptide with targeting and/or antimicrobial activity) | C. difficile
PF-314 (ECLKKAIKSKALNKAFKIDVPDEVYDNLLMELEEYEK; Peptide with targeting and/or antimicrobial activity) | S. mutans
PF-317 (LILVSDI; Peptide with targeting and/or antimicrobial activity) | S. mutans
PF-320 (DSGYYALLENKEERVVWDGEVVANNIFNNLWIVVNKVKTG; Peptide with targeting and/or antimicrobial activity) | S. mutans; also recorded: E. coli
PF-323 (ARESIEKSHVPVDATIVGVVDSFEVFDE; Peptide with targeting and/or antimicrobial activity) | S. mutans
PF-324 (HFSLL; Peptide with targeting and/or antimicrobial activity) | C. difficile
PF-325 (LTIDEKLRNHR; Peptide with targeting and/or antimicrobial activity) | S. mutans; also recorded: E. coli
PF-326 (VIVGNLGAQKEKRNDTPISAKKDIMGDKTVRVRADLHH; Peptide with targeting and/or antimicrobial activity) | S. mutans; also recorded: E. coli
PF-328 (NGNEKAFSEVENLVK; Peptide with targeting and/or antimicrobial activity) | S. mutans
PF-329 (IGILFDKSVRKY; Peptide with targeting and/or antimicrobial activity) | S. epidermidis
PF-333 (YMTKKLVEMAEQQMAGKSNR; Peptide with targeting and/or antimicrobial activity) | S. mutans
PF-334 (QQYLILDRM; Peptide with targeting and/or antimicrobial activity) | S. epidermidis; also recorded: C. difficile
PF-337 (YMTKKLVEMAERQMAGK; Peptide with targeting and/or antimicrobial activity) | S. epidermidis
PF-338 (KGTSCPDQLSKAIRQSI; Peptide with targeting and/or antimicrobial activity) | S. mutans
PF-340 (VKDVLLELFNKIIGA; Peptide with targeting and/or antimicrobial activity) | S. mutans; also recorded: E. coli
PF-348 (ESASAAEWYNPNMNVKKAICMG; Peptide with targeting and/or antimicrobial activity) | B. subtilis; also recorded: E. coli; also recorded: P. aeruginosa; also recorded: C. albicans; also recorded: E. faecalis; also recorded: C. jejuni
PF-351 (YLFFKGKKVAEEEATKDEVKR; Peptide with targeting and/or antimicrobial activity) | S. mutans
PF-352 (RVKKIG; Peptide with targeting and/or antimicrobial activity) | C. jeikeium
PF-359 (MTVMEDPGSEQRNKIQSPMKGEDFSALFGR; Peptide with targeting and/or antimicrobial activity) | S. epidermidis and B. fragilis and P. aeruginosa and C. albicans and MRSA and E. faecalis and C. jeikeium
PF-361 (NQVTEGIRLLVE; Peptide with targeting and/or antimicrobial activity) | S. epidermidis; also recorded: E. coli; also recorded: E. faecalis; also recorded: C. jejuni

Source: patent US20110039762A1, “TARGETED ANTIMICROBIAL MOIETIES” (C3 JIAN, INC., priority 2009, published 2011)
